Laboratory results: patent US7582649B2, “Hydroxy alkyl substituted 1,3,8-triazaspiro[4.5]decan-4-one derivatives useful for the treatment of ORL-1 receptor mediated disorders” (Janssen Pharmaceutica, NV, priority 2002, dated 2009)
Like-named read-outs stand apart in the source and are kept apart here.

Key:
Long-Evans Hooded rats [1] = conditions: male, rat, in vivo, po
D2 receptor = D2 receptor (Homo sapiens, UniProt P14416); assay: Filtration binding assay, dopamine (Spiperone-I125); conditions: D2 receptor, Spiperone-I125; read-out: IC50
Chain of D2 receptor (P14416 whole entry): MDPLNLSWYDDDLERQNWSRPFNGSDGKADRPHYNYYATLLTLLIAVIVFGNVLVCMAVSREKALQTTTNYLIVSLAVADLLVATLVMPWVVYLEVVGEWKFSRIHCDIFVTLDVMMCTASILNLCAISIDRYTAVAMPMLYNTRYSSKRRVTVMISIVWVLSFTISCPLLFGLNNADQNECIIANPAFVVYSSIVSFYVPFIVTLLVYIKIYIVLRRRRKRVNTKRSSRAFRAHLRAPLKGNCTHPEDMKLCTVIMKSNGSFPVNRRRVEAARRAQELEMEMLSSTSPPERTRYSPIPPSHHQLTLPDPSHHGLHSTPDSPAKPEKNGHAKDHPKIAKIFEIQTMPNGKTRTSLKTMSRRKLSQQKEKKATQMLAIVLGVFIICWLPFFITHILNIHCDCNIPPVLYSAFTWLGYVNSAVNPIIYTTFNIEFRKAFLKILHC

Long-Evans Hooded rats [2] = conditions: rat, in vivo; for Total Entries (EPM), % Change / Total Entries (EPM), Mean / reduction of total number of entries into various zones of the maze: male, Long-Evans Hooded; for Total Entries (EPM), % Change / Total Entries (EPM), Mean / reduction of total number of entries into various zones of the maze / % Open Arm Entries (EPM), % Change / % Open Arm Entries (EPM), Mean / % Open Arm Time (EPM), % Change / % Open Arm Time (EPM), Mean / percent open arm entries, increase as compared to vehicle: po
kappa opioid receptor = kappa opioid receptor (Homo sapiens, UniProt P41145); assay: Filtration binding assay: kappa opioid receptor
Chain of kappa opioid receptor (P41145 whole entry): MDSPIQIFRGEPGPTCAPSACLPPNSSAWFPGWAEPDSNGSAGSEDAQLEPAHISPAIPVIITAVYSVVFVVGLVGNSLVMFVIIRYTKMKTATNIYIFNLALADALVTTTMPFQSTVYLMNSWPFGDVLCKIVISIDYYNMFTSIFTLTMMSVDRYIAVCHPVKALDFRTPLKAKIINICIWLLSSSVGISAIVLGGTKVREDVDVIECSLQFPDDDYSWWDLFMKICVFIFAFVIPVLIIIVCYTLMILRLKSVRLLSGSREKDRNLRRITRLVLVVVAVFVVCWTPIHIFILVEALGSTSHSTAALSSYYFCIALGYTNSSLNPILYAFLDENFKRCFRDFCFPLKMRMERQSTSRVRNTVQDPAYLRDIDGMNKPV

delta opioid receptor = delta opioid receptor (Homo sapiens, UniProt P41143); assay: Filtration binding assay: delta opioid receptor
Chain of delta opioid receptor (P41143 whole entry): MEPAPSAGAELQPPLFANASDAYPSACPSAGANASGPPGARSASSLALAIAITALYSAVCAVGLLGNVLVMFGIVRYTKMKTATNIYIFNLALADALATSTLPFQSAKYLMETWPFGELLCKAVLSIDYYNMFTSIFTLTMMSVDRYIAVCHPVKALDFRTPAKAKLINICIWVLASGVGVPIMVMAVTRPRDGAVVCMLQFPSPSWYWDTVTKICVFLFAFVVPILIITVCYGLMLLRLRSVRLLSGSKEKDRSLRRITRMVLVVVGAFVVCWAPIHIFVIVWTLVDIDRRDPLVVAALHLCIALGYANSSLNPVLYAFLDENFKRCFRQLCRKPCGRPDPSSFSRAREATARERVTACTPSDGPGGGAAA

mu opioid receptor = mu opioid receptor (Homo sapiens, UniProt P35372); assay: Filtration binding assay: mu opioid receptor
Chain of mu opioid receptor (P35372 whole entry): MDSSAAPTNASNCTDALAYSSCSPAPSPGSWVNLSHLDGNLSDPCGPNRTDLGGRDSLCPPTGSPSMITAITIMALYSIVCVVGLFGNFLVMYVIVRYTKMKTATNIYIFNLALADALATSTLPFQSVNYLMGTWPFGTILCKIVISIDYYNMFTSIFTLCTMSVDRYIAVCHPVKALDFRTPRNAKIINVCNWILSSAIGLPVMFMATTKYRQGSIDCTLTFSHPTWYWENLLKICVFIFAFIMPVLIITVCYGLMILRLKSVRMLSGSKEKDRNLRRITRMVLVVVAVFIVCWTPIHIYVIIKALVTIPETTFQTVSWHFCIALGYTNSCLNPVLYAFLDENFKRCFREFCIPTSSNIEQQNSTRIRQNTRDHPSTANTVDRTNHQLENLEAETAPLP

In the case of `NC[C@H](O)CN1CN(c2ccc(F)cc2)C2(CCN([C@@H]3Cc4cccc5cccc3c45)CC2)C1=O` [Compound #424, (R)-8-Acenaphthen-1-yl-3-(3-amino-2-hydroxy-(S)-propyl)-1-(4-fluoro-phenyl)-1,3,8-triaza-spiro[4.5]decan-4-one], the “Horizontal Activity (SMA), % Change” value (Long-Evans Hooded rats [1]; 0.3 mg/kg) is reported as 5.3%, the “Horizontal Activity (SMA), Mean” value (Long-Evans Hooded rats [1]; 0.3 mg/kg) is reported as 3033 and the “Vertical Movement (SMA), % Change” value (Long-Evans Hooded rats [1]; 0.3 mg/kg) is reported as 11.2%. The “Vertical Movement (SMA), Mean” value (Long-Evans Hooded rats [1]; 0.3 mg/kg) was 54.6, the “Horizontal Activity (SMA), % Change” value (Long-Evans Hooded rats [1]; 1 mg/kg) was −4.5% and the “Horizontal Activity (SMA), Mean” value (Long-Evans Hooded rats [1]; 1 mg/kg) was 2752. For the same compound, the “Vertical Movement (SMA), % Change” value (Long-Evans Hooded rats [1]; 1 mg/kg) was 2.4%, the “Vertical Movement (SMA), Mean” value (Long-Evans Hooded rats [1]; 1 mg/kg) was 50.3 and the “reduction in number of vertical movements (rearing behavior)” value (from here on “reduction in number”) (Long-Evans Hooded rats [1]; 1 mg/kg) was 17.8%. The “Horizontal Activity (SMA), % Change” value (Long-Evans Hooded rats [1]; 3 mg/kg) was 14.5%, the “Horizontal Activity (SMA), Mean” value (Long-Evans Hooded rats [1]; 3 mg/kg) was 3300 and the “Vertical Movement (SMA), % Change” value (Long-Evans Hooded rats [1]; 3 mg/kg) was 15.7%. The “Vertical Movement (SMA), Mean” value (Long-Evans Hooded rats [1]; 3 mg/kg) was 56.8, the “reduction in horizontal activity” value (Long-Evans Hooded rats [1]; 3 mg/kg) was 55% and the “reduction in number” value (Long-Evans Hooded rats [1]; 3 mg/kg) was 73.4%. For the same compound, the “Horizontal Activity (SMA), % Change” value (Long-Evans Hooded rats [1]; 10 mg/kg) was −10.2%, the “Horizontal Activity (SMA), Mean” value (Long-Evans Hooded rats [1]; 10 mg/kg) was 2588 and the “Vertical Movement (SMA), % Change” value (Long-Evans Hooded rats [1]; 10 mg/kg) was −10.1%. The “Vertical Movement (SMA), Mean” value (Long-Evans Hooded rats [1]; 10 mg/kg) was 44.2, the “reduction in horizontal activity” value (Long-Evans Hooded rats [1]; 10 mg/kg) was 83.7% and the “reduction in number” value (Long-Evans Hooded rats [1]; 10 mg/kg) was 93.9%. The IC50 (D2 receptor) was 278 nM, the “Total Entries (EPM), % Change” value (Long-Evans Hooded rats [2]; 0.3 mg/kg) was −6.9% and the “Total Entries (EPM), Mean” value (Long-Evans Hooded rats [2]; 0.3 mg/kg) was 90.0. For the same compound, the “Total Entries (EPM), % Change” value (Long-Evans Hooded rats [2]; 1 mg/kg) was −5.3%, the “Total Entries (EPM), Mean” value (Long-Evans Hooded rats [2]; 1 mg/kg) was 91.5 and the “reduction of total number of entries into various zones of the maze” value (from here on “reduction of total number … of the maze”) (Long-Evans Hooded rats [2]; 1 mg/kg) was 18.6%. For the same compound, the “Total Entries (EPM), % Change” value (Long-Evans Hooded rats [2]; 3 mg/kg) was −0.4%, the “Total Entries (EPM), Mean” value (Long-Evans Hooded rats [2]; 3 mg/kg) was 96.3 and the “reduction of total number … of the maze” value (Long-Evans Hooded rats [2]; 3 mg/kg) was 60.3%. The “Total Entries (EPM), % Change” value (Long-Evans Hooded rats [2]; 10 mg/kg) was 6.1%, the “Total Entries (EPM), Mean” value (Long-Evans Hooded rats [2]; 10 mg/kg) was 102.6 and the “reduction of total number … of the maze” value (Long-Evans Hooded rats [2]; 10 mg/kg) was 76.7%. For the same compound, the “percent open arm entries” value (Long-Evans Hooded rats [2]) was “significant increases”, the “percent open arm time” value (Long-Evans Hooded rats [2]) was “significant increases” and the “percent open arm time, increase as compared to vehicle” value (Long-Evans Hooded rats [2]) was 97.5%. For the same compound, the “% Open Arm Entries (EPM), % Change” value (Long-Evans Hooded rats [2]; 0.3 mg/kg) was 33.8%, the “% Open Arm Entries (EPM), Mean” value (Long-Evans Hooded rats [2]; 0.3 mg/kg) was 7.33% and the “% Open Arm Time (EPM), % Change” value (Long-Evans Hooded rats [2]; 0.3 mg/kg) was 70.1%. The “% Open Arm Time (EPM), Mean” value (Long-Evans Hooded rats [2]; 0.3 mg/kg) was 9.80%, the “% Open Arm Entries (EPM), % Change” value (Long-Evans Hooded rats [2]; 1 mg/kg) was 36.7% and the “% Open Arm Entries (EPM), Mean” value (Long-Evans Hooded rats [2]; 1 mg/kg) was 7.49%. The “% Open Arm Time (EPM), % Change” value (Long-Evans Hooded rats [2]; 1 mg/kg) was 69.4%, the “% Open Arm Time (EPM), Mean” value (Long-Evans Hooded rats [2]; 1 mg/kg) was 9.76% and the “% Open Arm Entries (EPM), % Change” value (Long-Evans Hooded rats [2]; 3 mg/kg) was 44.5%. The “% Open Arm Entries (EPM), Mean” value (Long-Evans Hooded rats [2]; 3 mg/kg) was 7.92%, the “% Open Arm Time (EPM), % Change” value (Long-Evans Hooded rats [2]; 3 mg/kg) was 75.3% and the “% Open Arm Time (EPM), Mean” value (Long-Evans Hooded rats [2]; 3 mg/kg) was 10.1%. The “percent open arm entries, increase as compared to vehicle” value (Long-Evans Hooded rats [2]; 3 mg/kg) was 205%, the “% Open Arm Entries (EPM), % Change” value (Long-Evans Hooded rats [2]; 10 mg/kg) was 36.7% and the “% Open Arm Entries (EPM), Mean” value (Long-Evans Hooded rats [2]; 10 mg/kg) was 7.49%. For the same compound, the “% Open Arm Time (EPM), % Change” value (Long-Evans Hooded rats [2]; 10 mg/kg) was 30.9%, the “% Open Arm Time (EPM), Mean” value (Long-Evans Hooded rats [2]; 10 mg/kg) was 7.54% and the “percent open arm entries, increase as compared to vehicle” value (Long-Evans Hooded rats [2]; 10 mg/kg) was 237%. For the same compound, the IC50 (kappa opioid receptor) was 600 nM, the IC50 (delta opioid receptor) was 280 nM and the IC50 (mu opioid receptor) was 280 nM.
